According to patent US11505556B2, “Halogenated derivatives of morphinans and uses thereof” (Xalud Therapeutics, Inc., priority 2017, dated 2022):
Several values for one entry are separate records, joined by “and”; a condition that tells them apart may be missing. Identical values can stand only once. Like-named read-outs stand apart in the source and are kept apart here.

Columns and labels:
[1] = test system: off-target screening panel; assay: Off-target inhibition screening (whole panel); settings: 10 μM test concentration; hit = inhibition at or above the 50% level
Source text: (§1) In addition to the animal studies presented above in Examples 1-9, the results of in vitro testing of several of the compounds (i.e., XT-203, XT-204, and XT-206 through XT-217) are shown in Table 5 and Table 6. […]. Nine additional compounds had two or fewer off-target hits in the screening. […] These compounds spanned all of the tested N-modification classes. […]. Thus, the medicinal chemistry approach taken in this series of fluorinated compounds can yield low off-target activity and longer metabolic lifetime while preserving TLR4 antagonism. It is appreciated that further development of compounds in this class, using techniques known to those skilled in the art, may yield additional compounds with desirable pharmacologic and toxicologic characteristics.

in vitro [2] = settings: human, cultured hepatocytes
Human hepatocytes = assay: Hepatocyte elimination of parent compound; settings: cultured hepatocytes
iNOS = iNOS (Homo sapiens, UniProt P35228); assay: iNOS enzyme inhibition; assay type: biochemical
Sequence of iNOS (P35228 whole entry): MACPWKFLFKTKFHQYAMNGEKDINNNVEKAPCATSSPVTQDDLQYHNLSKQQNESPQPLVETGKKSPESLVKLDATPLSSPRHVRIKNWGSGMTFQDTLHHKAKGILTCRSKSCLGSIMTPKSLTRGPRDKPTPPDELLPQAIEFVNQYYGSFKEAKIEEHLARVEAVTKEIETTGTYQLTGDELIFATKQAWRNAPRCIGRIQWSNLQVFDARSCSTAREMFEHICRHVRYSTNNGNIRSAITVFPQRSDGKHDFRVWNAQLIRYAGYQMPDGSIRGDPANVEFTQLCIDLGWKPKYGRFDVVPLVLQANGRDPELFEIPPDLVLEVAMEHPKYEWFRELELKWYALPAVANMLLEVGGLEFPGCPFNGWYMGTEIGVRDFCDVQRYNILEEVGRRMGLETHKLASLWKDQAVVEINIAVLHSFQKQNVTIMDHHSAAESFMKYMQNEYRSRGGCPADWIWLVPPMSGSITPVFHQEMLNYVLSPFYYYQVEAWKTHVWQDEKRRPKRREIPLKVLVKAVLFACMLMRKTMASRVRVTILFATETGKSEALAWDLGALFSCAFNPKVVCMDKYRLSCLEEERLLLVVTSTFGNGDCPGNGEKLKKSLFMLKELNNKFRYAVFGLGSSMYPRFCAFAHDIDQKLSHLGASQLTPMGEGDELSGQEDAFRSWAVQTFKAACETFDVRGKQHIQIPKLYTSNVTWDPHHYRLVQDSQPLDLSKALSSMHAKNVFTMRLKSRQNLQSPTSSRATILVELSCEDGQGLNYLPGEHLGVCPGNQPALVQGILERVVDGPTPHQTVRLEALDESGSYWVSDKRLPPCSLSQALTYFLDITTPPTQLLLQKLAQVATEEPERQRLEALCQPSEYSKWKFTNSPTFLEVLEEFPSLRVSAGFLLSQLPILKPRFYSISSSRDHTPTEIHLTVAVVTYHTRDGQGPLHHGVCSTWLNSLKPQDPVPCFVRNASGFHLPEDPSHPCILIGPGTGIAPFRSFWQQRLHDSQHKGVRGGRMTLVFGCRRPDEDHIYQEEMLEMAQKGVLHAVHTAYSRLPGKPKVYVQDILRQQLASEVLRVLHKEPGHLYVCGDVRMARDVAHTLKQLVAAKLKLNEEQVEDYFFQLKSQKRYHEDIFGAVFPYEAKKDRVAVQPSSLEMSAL

[3] = test system: TLR4 (LPS-stimulated NO production, BV-2 mouse microglia cell line); assay: NO assay: inhibition of LPS-induced NO production in BV-2 microglia (iNOS cellular); assay type: cell-based; settings: Mus musculus
Source text: NO assay: Microglia are the resident cells of the innate immune system in the central nervous system, and TLR4 is primarily expressed by microglia rather than astrocytes or neurons in the CNS. Given this expression profile, the BV-2 mouse microglia cell line was used as the model system of microglia, as these cells recapitulate many of the responses of primary microglia with high fidelity. TLR4 activation induces the downstream production of the inflammatory factor NO, which contributes to the development of neuropathic pain and drug addiction. BV-2 murine microglia were grown in supplemented DMEM (including 10% FBS, 50 unit mL^−1 penicillin, 50 μg·mL^−1 streptomycin). BV-2 cells were detached from the flask by trypsin digestion when ˜80% confluence was reached. Cells were seeded at a density of 4×10^4 cells per well in 96-well plates. After overnight incubation, media was aspirated and changed to DMEM media without FBS. Cells were then treated with LPS (200 ng/ml) and different concentrations of the testing compounds. After 24 h treatment, 100 μL of supernatant media was removed after cells were treated for 24 h and added to flat black 96-well microfluor plates (Thermo Scientific, MA, USA). Subsequently, 10 μL of 2, 3-diaminonaphthalene (0.05 mg·mL^−1 in 0.62 M HCl) was added to each well and incubated for 15 min. The reaction was quenched by addition of 5 μL of 3 M NaOH and the plate was read on a Beckman Coulter DTX880 reader (Fullerton, Calif., USA) with excitation at 360 nm and emission at 430 nm.
N chain NTX: This experimentation involved an in vitro assay where mouse BV2 cells were treated with LPS, which results in the release of nitric oxide (NO). Blockade of TLR4 activity results in reduced NO production. Therefore, IC50 values were determined for test compounds that antagonize TLR4 activity. A series of test compounds were prepared, with different N-alkyl chains replacing the cyclopropyl methyl found in naltrexone. Cell viability was also measured by a standard assay, e.g., measurement of the release of cytoplasm-resident enzymes in the tissue culture supernatant or media to detect cell loss/lysis/rupture. A dose-inhibition curve was generated by testing the TLR4 antagonist compound for the ability to block LPS-stimulated iNOs induction. In FIG. 7, the inhibition levels across a range of doses are graphed, along with a regression curve. The IC50 value—50% inhibition level—is also provided, graphed against the length of the alkyl chain. Note that with longer N-alkyl chain the IC50 was reduced, although cell viability became problematic.
FIGS. 8B to 8D show the results of the inhibition of NO production from LPS-stimulated BV2 cells using the assay described above.

hERG = hERG (Homo sapiens, UniProt Q12809); assay: hERG inhibition
Sequence of hERG (Q12809 whole entry): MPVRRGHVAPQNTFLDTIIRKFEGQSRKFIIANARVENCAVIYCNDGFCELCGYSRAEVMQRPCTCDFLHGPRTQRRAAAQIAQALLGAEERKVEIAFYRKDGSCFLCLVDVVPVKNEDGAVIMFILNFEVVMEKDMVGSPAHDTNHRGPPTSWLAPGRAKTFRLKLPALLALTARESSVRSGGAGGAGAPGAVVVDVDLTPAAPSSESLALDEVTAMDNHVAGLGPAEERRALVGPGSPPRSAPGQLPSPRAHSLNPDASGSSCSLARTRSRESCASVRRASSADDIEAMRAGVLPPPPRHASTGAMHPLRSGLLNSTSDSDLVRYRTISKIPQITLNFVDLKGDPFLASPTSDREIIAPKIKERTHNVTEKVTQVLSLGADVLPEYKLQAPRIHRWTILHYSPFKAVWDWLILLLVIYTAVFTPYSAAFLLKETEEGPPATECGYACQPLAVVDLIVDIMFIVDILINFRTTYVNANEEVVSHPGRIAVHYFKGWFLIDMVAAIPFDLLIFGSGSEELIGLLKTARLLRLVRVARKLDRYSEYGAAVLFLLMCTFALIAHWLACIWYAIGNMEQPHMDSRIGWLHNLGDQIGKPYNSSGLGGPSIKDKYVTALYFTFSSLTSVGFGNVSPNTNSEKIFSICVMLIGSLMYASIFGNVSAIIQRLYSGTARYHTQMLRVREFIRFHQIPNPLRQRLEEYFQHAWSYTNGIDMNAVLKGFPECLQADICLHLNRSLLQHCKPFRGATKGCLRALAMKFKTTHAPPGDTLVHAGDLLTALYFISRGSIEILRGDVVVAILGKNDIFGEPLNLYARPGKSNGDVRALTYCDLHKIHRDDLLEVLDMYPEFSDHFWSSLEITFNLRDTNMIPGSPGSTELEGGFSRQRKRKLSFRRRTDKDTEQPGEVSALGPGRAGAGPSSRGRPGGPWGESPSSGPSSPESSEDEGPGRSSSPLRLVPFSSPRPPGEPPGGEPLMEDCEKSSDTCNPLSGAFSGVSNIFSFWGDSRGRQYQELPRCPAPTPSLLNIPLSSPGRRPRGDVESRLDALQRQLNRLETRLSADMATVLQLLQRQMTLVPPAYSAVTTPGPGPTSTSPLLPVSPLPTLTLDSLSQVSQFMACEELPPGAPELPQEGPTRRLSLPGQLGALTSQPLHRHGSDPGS

[4] = Hepatocyte elimination of parent compound, spread across species; assay type: in vitro ADME; settings: mouse, rat, dog, monkey, human, hepatocytes; lowest to highest species value; read-out: range of hepatocyte elimination half-life values across species
Experimental: Hepatocyte Elimination: (+)-NTX, AK-17 and XT-203 were incubated with cultured hepatocytes from the species listed in FIG. 9 and Table 4, and samples of the culture supernatant were collected over time. Samples were concentrated by nitrogen drying followed by reconstitution with 40% methanol for LC/MS analysis The data points were analyzed using the WinNonLin pharmacokinetics software package, and a half-life was determined that describes the rate of parent elimination. […].
as §1

[5] = target: Protein tyrosine kinase LCK (Homo sapiens, UniProt P06239); assay: Off-target screening; assay type: biochemical
Source text: as §1

in vitro [6] = settings: monkey, cultured hepatocytes
in vitro [7] = settings: mouse, hepatocytes
in vitro [8] = settings: dog, cultured hepatocytes
in vitro [9] = settings: rat, cultured hepatocytes
Histamine H2 = Histamine H2 (Homo sapiens, UniProt P25021); assay: Off-target screening; assay type: binding
Source text: as §1

Sodium channel site 2 = assay: Off-target screening; assay type: binding
Source text: as §1

[10] = target: Transporter, Norepinephrine (NET) (Homo sapiens, UniProt P23975); assay: Off-target screening; assay type: binding
Sequence of Transporter, Norepinephrine (NET) (P23975 whole entry): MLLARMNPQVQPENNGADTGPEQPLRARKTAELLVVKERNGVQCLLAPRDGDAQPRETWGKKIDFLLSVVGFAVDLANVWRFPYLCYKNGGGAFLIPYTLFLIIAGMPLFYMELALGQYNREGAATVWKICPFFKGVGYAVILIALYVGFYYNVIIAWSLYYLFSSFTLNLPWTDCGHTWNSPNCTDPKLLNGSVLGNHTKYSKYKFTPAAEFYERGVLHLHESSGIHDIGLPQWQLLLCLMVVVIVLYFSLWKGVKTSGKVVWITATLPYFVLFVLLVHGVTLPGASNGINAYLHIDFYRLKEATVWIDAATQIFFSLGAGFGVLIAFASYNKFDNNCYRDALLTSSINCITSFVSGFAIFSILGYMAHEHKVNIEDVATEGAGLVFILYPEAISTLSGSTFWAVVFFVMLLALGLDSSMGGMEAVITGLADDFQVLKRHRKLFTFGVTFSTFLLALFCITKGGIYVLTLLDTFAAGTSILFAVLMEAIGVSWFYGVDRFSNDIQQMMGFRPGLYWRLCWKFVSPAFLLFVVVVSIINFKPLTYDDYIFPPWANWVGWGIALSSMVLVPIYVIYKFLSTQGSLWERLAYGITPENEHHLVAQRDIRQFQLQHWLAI
Source text: as §1

Opiate μ (OP3, MOP) = Opiate μ (OP3, MOP) (Homo sapiens, UniProt P35372); assay: Off-target screening; assay type: binding
Sequence of Opiate μ (OP3, MOP) (P35372 whole entry): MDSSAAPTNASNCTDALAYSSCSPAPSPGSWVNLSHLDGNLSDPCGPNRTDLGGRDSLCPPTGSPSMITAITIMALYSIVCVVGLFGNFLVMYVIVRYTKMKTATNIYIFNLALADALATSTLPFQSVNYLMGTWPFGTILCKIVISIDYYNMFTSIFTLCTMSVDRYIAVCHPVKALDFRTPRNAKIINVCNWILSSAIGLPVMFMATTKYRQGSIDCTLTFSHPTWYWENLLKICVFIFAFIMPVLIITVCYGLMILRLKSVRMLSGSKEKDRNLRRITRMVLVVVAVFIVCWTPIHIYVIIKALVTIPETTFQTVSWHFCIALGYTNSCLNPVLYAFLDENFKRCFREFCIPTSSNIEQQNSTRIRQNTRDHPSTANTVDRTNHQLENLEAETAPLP
Source text: as §1

Adrenergic α2B = Adrenergic α2B (Homo sapiens, UniProt P18089); assay: Off-target screening; assay type: binding
Sequence of Adrenergic α2B (P18089 whole entry): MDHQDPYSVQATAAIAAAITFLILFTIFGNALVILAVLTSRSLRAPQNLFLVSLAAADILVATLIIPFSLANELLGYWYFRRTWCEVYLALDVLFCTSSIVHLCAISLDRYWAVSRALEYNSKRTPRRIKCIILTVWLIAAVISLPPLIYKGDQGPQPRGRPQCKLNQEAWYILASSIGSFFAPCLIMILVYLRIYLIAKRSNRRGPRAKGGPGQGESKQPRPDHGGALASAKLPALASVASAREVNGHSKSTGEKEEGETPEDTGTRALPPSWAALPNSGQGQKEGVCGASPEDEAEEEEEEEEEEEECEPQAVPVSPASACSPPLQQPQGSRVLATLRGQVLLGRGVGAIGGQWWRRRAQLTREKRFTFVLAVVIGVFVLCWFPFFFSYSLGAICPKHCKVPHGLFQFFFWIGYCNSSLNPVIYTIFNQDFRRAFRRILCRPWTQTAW
Source text: as §1

[11] = test system: Calcium channel L-Type, benzothiazepine; assay: Off-target screening; assay type: binding
Source text: as §1

Adrenergic α2A = target: T1, Adrenergic α2A (Homo sapiens, UniProt P08913); assay: Off-target screening; assay type: binding; settings: 10 μM
T1 sequence (P08913 1-465): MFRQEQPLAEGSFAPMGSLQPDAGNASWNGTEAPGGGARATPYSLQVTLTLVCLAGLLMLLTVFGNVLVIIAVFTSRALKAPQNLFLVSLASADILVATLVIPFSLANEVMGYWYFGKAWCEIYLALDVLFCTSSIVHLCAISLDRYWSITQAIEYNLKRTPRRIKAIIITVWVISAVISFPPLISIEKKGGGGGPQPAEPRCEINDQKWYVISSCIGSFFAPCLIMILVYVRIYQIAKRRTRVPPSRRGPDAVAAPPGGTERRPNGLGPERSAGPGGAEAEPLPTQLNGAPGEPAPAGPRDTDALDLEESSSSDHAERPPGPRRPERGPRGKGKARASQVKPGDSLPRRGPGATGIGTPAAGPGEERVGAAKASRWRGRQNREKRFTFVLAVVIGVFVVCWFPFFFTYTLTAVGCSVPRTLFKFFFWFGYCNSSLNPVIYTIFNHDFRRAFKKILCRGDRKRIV
Source text: as §1

Adrenergic α1B = assay: Off-target screening; assay type: binding
Source text: as §1

Adrenergic α1A = assay: Off-target screening; assay type: binding
Source text: as §1

Opiate κ (OP2, KOP) = Opiate κ (OP2, KOP) (Homo sapiens, UniProt P41145); assay: Off-target screening; assay type: binding
Sequence of Opiate κ (OP2, KOP) (P41145 whole entry): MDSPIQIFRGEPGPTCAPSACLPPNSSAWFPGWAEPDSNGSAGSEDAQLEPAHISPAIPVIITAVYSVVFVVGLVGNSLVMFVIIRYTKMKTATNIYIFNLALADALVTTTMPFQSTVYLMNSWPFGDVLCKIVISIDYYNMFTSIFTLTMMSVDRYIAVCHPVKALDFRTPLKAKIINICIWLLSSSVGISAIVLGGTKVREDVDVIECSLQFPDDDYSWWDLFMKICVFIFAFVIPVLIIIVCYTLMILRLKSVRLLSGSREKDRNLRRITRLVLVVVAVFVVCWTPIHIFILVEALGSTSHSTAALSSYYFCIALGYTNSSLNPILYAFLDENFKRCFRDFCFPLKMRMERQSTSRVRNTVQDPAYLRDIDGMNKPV
Source text: as §1

Adrenergic α1D = Adrenergic α1D (Homo sapiens, UniProt P25100); assay: Off-target screening; assay type: binding
Source text: as §1

Dopamine D2L = Dopamine D2L (Homo sapiens, UniProt P14416); assay: Off-target screening; assay type: binding
Source text: as §1

Cannabinoid CB1 = Cannabinoid CB1 (Homo sapiens, UniProt P21554); assay: Off-target screening; assay type: binding
Sequence of Cannabinoid CB1 (P21554 whole entry): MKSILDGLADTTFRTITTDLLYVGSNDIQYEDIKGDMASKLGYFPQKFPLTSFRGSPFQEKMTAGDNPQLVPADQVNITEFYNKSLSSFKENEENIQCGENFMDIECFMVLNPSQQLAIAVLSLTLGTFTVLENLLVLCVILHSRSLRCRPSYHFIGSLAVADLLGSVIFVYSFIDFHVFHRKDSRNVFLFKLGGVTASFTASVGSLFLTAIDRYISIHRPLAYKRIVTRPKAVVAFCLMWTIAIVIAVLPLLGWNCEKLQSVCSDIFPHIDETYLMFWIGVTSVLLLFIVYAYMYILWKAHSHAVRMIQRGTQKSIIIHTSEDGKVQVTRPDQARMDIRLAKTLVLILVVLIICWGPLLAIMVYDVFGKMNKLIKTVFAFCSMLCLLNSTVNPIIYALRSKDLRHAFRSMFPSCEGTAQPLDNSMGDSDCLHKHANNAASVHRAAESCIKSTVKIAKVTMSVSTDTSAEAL
Source text: as §1

[12] = test system: Calcium channel L-Type, phenylalkylamine; assay: Off-target screening; assay type: binding
Source text: as §1

Tachykinin NK1 = Tachykinin NK1 (Homo sapiens, UniProt P25103); assay: Off-target screening; assay type: binding
Source text: as §1

Dopamine D2S = Dopamine D2S (Homo sapiens, UniProt P14416); assay: Off-target screening; assay type: binding
Sequence of Dopamine D2S (P14416 1-414 isoform P14416-2): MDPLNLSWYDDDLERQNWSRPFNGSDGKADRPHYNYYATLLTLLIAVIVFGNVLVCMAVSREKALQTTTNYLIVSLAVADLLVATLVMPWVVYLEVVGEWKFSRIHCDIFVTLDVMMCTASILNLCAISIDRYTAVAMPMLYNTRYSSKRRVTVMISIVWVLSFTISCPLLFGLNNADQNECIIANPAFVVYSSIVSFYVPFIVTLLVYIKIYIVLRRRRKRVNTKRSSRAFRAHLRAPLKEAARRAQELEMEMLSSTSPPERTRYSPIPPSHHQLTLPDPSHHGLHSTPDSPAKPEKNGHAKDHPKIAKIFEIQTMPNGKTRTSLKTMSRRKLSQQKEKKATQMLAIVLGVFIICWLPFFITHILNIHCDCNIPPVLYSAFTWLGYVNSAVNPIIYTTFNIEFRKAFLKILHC
Source text: as §1

[13] = test system: GABA A, chloride channel, TBOB; assay: Off-target screening; assay type: binding
Source text: as §1

Progesterone, PR-B = Progesterone, PR-B (Homo sapiens, UniProt P06401); assay: Off-target screening; assay type: binding
Source text: as §1

Vasopressin V1A = Vasopressin V1A (Homo sapiens, UniProt P37288); assay: Off-target screening; assay type: binding
Source text: as §1

[14] = target: Transporter, Dopamine (DAT) (Homo sapiens, UniProt Q01959); assay: Off-target screening; assay type: binding
Source text: as §1

Adenosine A2A = Adenosine A2A (Homo sapiens, UniProt P29274); assay: Off-target screening; assay type: binding
Source text: as §1

Transporter, Adenosine = assay: Off-target screening; assay type: binding
Source text: as §1

[15] = Microglia, Table 6, unit inferred, footnote: Indicator of TL4 antagonism
[16] = LPS (200 ng/ml), 24 h, BV-2 cells, Table 3

Row | Structure (SMILES) | half-life (in vitro [2]) | IC50 [3, 15] | IC50 [3, 16] | IC50 (hERG) | half-life (in vitro [6]) | half-life (in vitro [7]) | half-life (in vitro [8]) | half-life (in vitro [9]) | inhibition at 10 µM [10] | inhibition at 10 µM (Opiate κ (OP2, KOP)) | inhibition at 10 µM (Cannabinoid CB1) | further results
1 | COc1ccc2c3c1O[C@@H]1C(F)CCC4[C@H](C2)N(S(C)(=O)=O)CC[C@]341 (some centres unmarked) [XT-209] | 296 min | > 10 µM | > 10 µM | > 10 µM | 39.4 min | 22.4 min | 89 min | 15.3 min |  |  |  | off-target hits in the screening [1]: one off-target hit; parent duration in human hepatocytes relative to XT-203 (Human hepatocytes): longer parent duration than XT-203; IC50 (iNOS): > 10 µM; IC50 (iNOS; read-out: iNOS enzyme, Table 6, unit inferred): > 10 µM; half-life [4]: 15.3 to 296 min; inhibition at 10 µM [5]: 61%
2 | COc1ccc2c3c1O[C@@H]1C(F)CCC4[C@H](C2)N(C(C)Cc2ccccc2)CC[C@]341 (some centres unmarked) [XT-215] | 65.6 min | > 10 µM | > 10 µM |  | 22.1 min | 20.7 min | 19.6 min | 12.7 min | 61% | 79% | 57% | inhibition at 10 µM (Histamine H2): 82%; % Inhibition at 10 μM, Sodium channel site 2 (Sodium channel site 2): 101%; inhibition at 10 µM (Opiate μ (OP3, MOP)): 79%; inhibition at 10 µM (Adrenergic α2B): 105%; % Inhibition at 10 μM, Calcium channel L-Type, benzothiazepine [11]: 51% and 73%; inhibition at 10 µM (Adrenergic α2A): 96%; % Inhibition at 10 μM, Adrenergic α1B (Adrenergic α1B): 99%; % Inhibition at 10 μM, Adrenergic α1A (Adrenergic α1A): 85% and 99%; inhibition at 10 µM (Adrenergic α1D): 92%; inhibition at 10 µM (Dopamine D2L): 65%; % Inhibition at 10 μM, Calcium channel L-Type phenylalkylamine [12]: 73% and 51%; inhibition at 10 µM (Tachykinin NK1): 55%; inhibition at 10 µM (Dopamine D2S): 81%; IC50 (hERG; human): 10 µM; inhibition at 10 µM (hERG; human, read-out: hERG inhibition, percent): 51%
3 | COc1ccc2c3c1O[C@@H]1C(F)CCC4[C@H](C2)N(C(=O)C(C)(C)c2ccccc2)CC[C@]341 (some centres unmarked) [XT-216] | 31.5 min | > 10 µM | > 10 µM | > 10 µM | 10.6 min | 20.8 min | 17.1 min | 11.3 min | 59% | 69% | 82% | % Inhibition at 10 μM, GABA A, chloride channel, TBOB [13]: 54%; inhibition at 10 µM (Progesterone, PR-B): 50%; inhibition at 10 µM (Vasopressin V1A): 69%; inhibition at 10 µM [14]: 52%; inhibition at 10 µM (Adenosine A2A): 57%; % Inhibition at 10 μM, Transporter, Adenosine (Transporter, Adenosine): 60%
